Tests used:
[1] = target: T1, human recombinant adrenergic α2B receptor (Homo sapiens, UniProt P18089); assay: Adrenergic α2B radioligand binding assay ([3H]Rauwolscine); details: compound at 1 μM; 2.5 nM [3H]Rauwolscine; CHO-K1 cells; read-out: Percent Inhibition of ligand binding, Adrenergic (1 μM) a2B
T1 construct: expressed in transfected cells; host or cells: Chinese hamster ovary (CHO-K1) cells
T1 sequence (P18089 1-450): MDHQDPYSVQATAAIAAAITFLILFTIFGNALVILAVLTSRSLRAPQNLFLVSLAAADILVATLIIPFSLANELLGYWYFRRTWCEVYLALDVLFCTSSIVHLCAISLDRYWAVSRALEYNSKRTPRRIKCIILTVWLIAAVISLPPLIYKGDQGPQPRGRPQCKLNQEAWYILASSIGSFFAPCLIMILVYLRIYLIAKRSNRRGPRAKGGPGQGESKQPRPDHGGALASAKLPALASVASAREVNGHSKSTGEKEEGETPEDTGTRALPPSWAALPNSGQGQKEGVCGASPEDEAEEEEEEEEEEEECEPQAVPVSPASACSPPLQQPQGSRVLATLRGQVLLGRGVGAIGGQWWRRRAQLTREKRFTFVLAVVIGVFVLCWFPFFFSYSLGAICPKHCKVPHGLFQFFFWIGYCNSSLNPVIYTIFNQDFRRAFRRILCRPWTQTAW
Description: To evaluate in radioligand binding assays the activity of compounds of the invention, human recombinant adrenergic α2B receptor expressed in Chinese hamster ovary (CHO-K1) cells (Uhlen S et al., Eur. J. Pharmacol. 343(1):93, 1998) in a modified Tris-HCl buffer (50 mM Tris-HCl, pH 7.4, 12.5 mM MgCl2, 1 mM EDTA, 0.2% BSA) was used. Compounds of the invention were incubated with 2.5 nM [^3H]Rauwolscine for 60 min at 25° C. Non-specific binding was estimated in the presence of 10 μM Prozosin. Receptor proteins were filtered and washed, the filters were then counted to determine [^3H]Rauwolscine specifically bound.

[2] = target: T2, human recombinant serotonin (5-Hydroxytryptamine) 5-HT2A receptor (Homo sapiens, UniProt P28223); assay: Serotonin 5-HT2A radioligand binding assay ([3H]Ketanserin); details: compound at 1 μM; 0.5 nM [3H]Ketanserin; CHO-K1 cells; read-out: Percent Inhibition of ligand binding, Serotonin (1 μM) 5-HT2A
T2 construct: expressed in transfected cells; host or cells: Chinese hamster ovary (CHO-K1) cells
Description: Compounds of the invention were incubated with 0.5 nM [^3H]Ketanserin for 60 min at 25° C. Non-specific binding was estimated in the presence of 1 μM Mianserin. Receptor proteins were filtered and washed, the filters were then counted to determine [^3H]Ketanserin specifically bound. Compounds were screened at 1 μM or lower, using 1% DMSO as vehicle. Biochemical assay results are presented as the percent inhibition of specific binding in Table 4.

[3] = target: human recombinant serotonin (5-Hydroxytryptamine) 5-HT7 receptor (Homo sapiens, UniProt P34969); assay: Serotonin 5-HT7 radioligand binding assay ([3H]LSD); details: compound at 1 μM; 5.5 nM [3H]LSD; CHO cells; read-out: Percent Inhibition of ligand binding, Serotonin (1 μM) 5-HT7
Description: Compounds of invention were incubated with 5.5 nM [^3H] Lysergic acid diethylamide (LSD) for 2 h at 25° C. […] Receptor proteins were filtered and washed, the filters were then counted to determine [^3H]LSD specifically bound. Compounds were screened at 1 μM or lower, using 1% DMSO as vehicle. Biochemical assay results are presented as the percent inhibition of specific binding in Table 4.

Sequence of human recombinant serotonin (5-Hydroxytryptamine) 5-HT7 receptor (P34969 whole entry): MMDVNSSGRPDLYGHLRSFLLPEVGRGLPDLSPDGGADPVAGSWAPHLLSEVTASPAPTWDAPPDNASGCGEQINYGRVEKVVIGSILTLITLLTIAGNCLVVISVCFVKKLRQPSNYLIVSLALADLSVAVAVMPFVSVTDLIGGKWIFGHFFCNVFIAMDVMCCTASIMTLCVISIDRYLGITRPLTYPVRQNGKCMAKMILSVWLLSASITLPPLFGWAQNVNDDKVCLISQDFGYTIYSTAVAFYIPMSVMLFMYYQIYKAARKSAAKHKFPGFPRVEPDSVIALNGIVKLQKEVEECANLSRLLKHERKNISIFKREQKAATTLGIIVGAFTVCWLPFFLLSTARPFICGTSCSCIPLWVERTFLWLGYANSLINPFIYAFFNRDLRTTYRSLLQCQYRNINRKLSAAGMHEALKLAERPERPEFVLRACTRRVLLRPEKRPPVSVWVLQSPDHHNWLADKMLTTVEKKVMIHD
T2 sequence (P28223 whole entry): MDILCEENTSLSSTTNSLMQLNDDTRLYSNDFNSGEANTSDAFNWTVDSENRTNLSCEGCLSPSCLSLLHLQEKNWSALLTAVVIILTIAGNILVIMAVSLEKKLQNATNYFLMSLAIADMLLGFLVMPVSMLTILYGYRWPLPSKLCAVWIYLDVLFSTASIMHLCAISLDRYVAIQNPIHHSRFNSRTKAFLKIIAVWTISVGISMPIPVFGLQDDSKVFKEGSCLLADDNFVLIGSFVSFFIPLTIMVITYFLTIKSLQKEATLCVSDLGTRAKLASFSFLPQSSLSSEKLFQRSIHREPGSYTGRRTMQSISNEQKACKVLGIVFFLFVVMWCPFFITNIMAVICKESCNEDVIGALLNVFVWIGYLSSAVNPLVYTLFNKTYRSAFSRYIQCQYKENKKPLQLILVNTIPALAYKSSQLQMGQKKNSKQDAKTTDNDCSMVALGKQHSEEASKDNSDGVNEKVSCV

Structure (SMILES) | inhibition at 1 µM [1] [%] | inhibition at 1 µM [2] [%] | inhibition at 1 µM [3] [%]
Cc1ccc2c(c1)c1c(n2CCc2ccc(C)nc2)CCN(CCC#N)C1 [Compound 1-34, 3-(8-methyl-5-(2-(6-methylpyridin-3-yl)ethyl)-3,4-dihydro-1H-pyrido[4,3-b]indol-2(5H)-yl)propanenitrile] | 23 | 0 | –
Cc1ccc2c(c1)c1c(n2CC(=O)c2ccccc2)CCN(C)C1 [Compound 1-35, 2-(2,8-dimethyl-3,4-dihydro-1H-pyrido[4,3-b]indol-5(2H)-yl)-1-phenylethanone] | 59 | 90 | –
CN1CCc2c(c3cc(Cl)ccc3n2CC(=O)c2ccccc2)C1 [Compound 1-36, 2-(8-chloro-2-methyl-3,4-dihydro-1H-pyrido[4,3-b]indol-5(2H)-yl)-1-phenylethanone] | 92 | 98 | –
CN1CCc2c(c3cc(Cl)ccc3n2CC(=O)c2ccc(F)cc2)C1 [Compound 1-37, 2-(8-chloro-2-methyl-3,4-dihydro-1H-pyrido[4,3-b]indol-5(2H)-yl)-1-(4-fluorophenyl)ethanone] | 87 | 98 | 73
CN1CCc2c(c3cc(Cl)ccc3n2CC(=O)c2ccc(Cl)cc2)C1 [Compound 1-38, 2-(8-chloro-2-methyl-3,4-dihydro-1H-pyrido[4,3-b]indol-5(2H)-yl)-1-(4-chlorophenyl)ethanone] | 92 | 100 | 81
Cc1ccc2c(c1)c1c(n2CC(=O)c2ccc(F)cc2)CCN(C)C1 [Compound 1-39, 2-(2,8-dimethyl-3,4-dihydro-1H-pyrido[4,3-b]indol-5(2H)-yl)-1-(4-fluorophenyl)ethanone] | 92 | 98 | 95
Cc1ccc2c(c1)c1c(n2CCc2ccc(CCCN)nc2)CCN(C)C1 [Compound 1-40, 3-(5-(2-(2,8-dimethyl-3,4-dihydro-1H-pyrido[4,3-b]indol-5(2H)-yl)ethyl)pyridin-2-yl)propan-1-amine] | 63 | 78 | –
Cc1ccc2c(c1)c1c(n2CCc2ccc(C(F)(F)F)nc2)CCNC1 [Compound 1-41, 8-methyl-5-(2-(6-(trifluoromethyl)pyridin-3-yl)ethyl)-2,3,4,5-tetrahydro-1H-pyrido[4,3-b]indole] | 89 | 66 | 59
Cc1ccc2c(c1)c1c(n2CCc2ccc(C)nc2)CCN(CCCO)C1 [Compound 1-42, 3-(8-methyl-5-(2-(6-methylpyridin-3-yl)ethyl)-3,4-dihydro-1H-pyrido[4,3-b]indole-2(5H)-yl)propan-1-ol] | 39 | 87 | 63

Reference: patent US9255094B2, “Pyrido[4,3-B]indoles and methods of use” (Medivation Technologies, Inc., priority 2009, dated 2016)
